Experimental data: patent US20100197616A1, “Proliferation inhibitor of helicobacter pylori including alpha-n-acetyl-glucosaminyl bond-containing monosaccharide derivatives” (THE NOGUCHI INSTITUTE, priority 2007, published 2010)

Tests used:
[1] = system: H. pylori (ATCC 43504); assay: H. pylori-proliferation inhibitory effect (OD 600 nm versus negative control); assay type: cell-based, Helicobacter pylori
Experimental: The effect of GlcNAc alpha-O-Et on H. pylori was confirmed according to the following procedures. Bacterial cells of H. pylori (ATCC 43504) stored in a brucella broth culture medium frozen at −80° C. were cultured in the same culture medium (3 mL) supplemented with 10% equine serum at 35° C. in the presence of 15% CO2 for 40 hours according to the shaking culture technique, the movement of bacterial cells was observed under a microscope and non-coccoid type bacterial cells of H. pylori were recovered. The culture medium was inspected for the OD values at 600 nm, followed by the dilution thereof with Muller-Hinton culture medium supplemented with 5.5% equine serum such that the number of bacterial cells present therein was equal to 4×10^7, and 3 mL thereof in total was cultured at 35° C. in the presence of 15% CO2 for 24 hours according to the shaking culture technique, followed by the confirmation by a microscope to thus give an H. pylori-containing culture medium (bacterial cell density: 2×10^7/mL) used in the test for the confirmation of the effect of the foregoing compound. On the other hand, there were prepared Muller-Hinton culture mediums (free of any bacterial cell of H. pylori) each containing 902.6 μM to 14.4 mM of the foregoing GlcNAc alpha-O-Et and supplemented with 5% equine serum, each of the resulting culture mediums was added to the foregoing H. pylori-containing culture medium in a mixing ratio of 1:1 (by volume) (total volume: 100 μL each; on a 96-well plate), followed by the mixing thereof and the subsequent cultivation at 35° C. in the presence of 15% CO2 for 96 hours. After the cultivation thereof over a predetermined period of time, the bacterial cell density thus proliferated was determined by the determination of the OD values at 600 nm, followed by the comparison of the result observed for the sample to which the candidate compound was added with that observed for the negative control free of any candidate compound (the control depicted in FIG. 1) to thus evaluate the proliferation inhibitory effect of the compound. In this respect, 1 U herein means 2.9 μmol/mL. The effect of GlcNAc alpha-cholestanol on H. pylori was confirmed according to the following procedures. Bacterial cells of H. pylori (ATCC 43504) stored in a brucella broth culture medium frozen at −80° C. were cultured in the same culture medium (3 mL) supplemented with 10% equine serum at 35° C. in the presence of 15% CO2 for 40 hours according to the shaking culture technique, the movement or behavior of bacterial cells was observed under a microscope and non-coccoid type bacterial cells of H. pylori were recovered. […]

[2] = Decomposition in culture mediums and the stomach; settings: within the culture mediums and the stomach

Structure (SMILES) | inhibition at 180 µM ([1]; Helicobacter pylori, ATCC43504, at least 62.5 mU/mL (180 μM, nominal, insoluble fraction filtered off), within 1.5 to 2 days, FIG. 2) | proliferation ability of H. pylori ([1]; culture medium containing not less than 1.8 mM) | inhibition of the proliferation of H. pylori ([1]; culture medium containing not less than 7.2 mM) | H. pylori proliferation inhibited ([1]; not less than 625 mU/mL (1.8 mM), FIG. 1, cultivation up to 96 hours) | decomposition (stability) [2]
CC(=O)NC1[C@@H](O[C@H]2CC[C@@]3(C)C(CCC4C3CC[C@@]3(C)C4CC[C@@H]3[C@H](C)CCCC(C)C)C2)OC(CO)[C@@H](O)[C@@H]1O (stereo partly drawn) [Compound 2, 3-beta-Cholestanyl-2-Acetamide-2-Deoxy-N-Acetyl-alpha-D-Glucosaminide] | 40 to 50% |  |  |  | 
CCO[C@H]1OC(CO)[C@@H](O)[C@H](O)C1NC(C)=O (stereo partly drawn) [Compound 1, Ethoxy 2-acetamide-2-deoxy-N-acetyl-alpha-D-glucosaminide] |  | not more than 50% | completely inhibit | not less than 50% | never decomposed
